Reference: patent publication US20080113344A1, “Methods and Compositions for the Response Prediction of Malignant Neoplasia to Treatment” (priority 2003, published 2008)

System: breast cancer
Assay: Retrospective clinical study of adjuvant tamoxifen treatment of breast cancer
Type: in vivo, human
Conditions: overexpression of PPARBP
Text: In particular, elevated levels of the PPARBP gene and protein and the integrity of the telomeric hormone receptor region of the 17q21 ARCHEON, bearing THRA, NR1D1 and RARA, or its related regions on the other ARCHEONs are of importance for these therapeutic regimens. […] Overexpression of PPARBP enables activity of estrogen and progesteron receptors irrespective of a bound ligand. Therefore, the deregulation of the PPARBP results in the activity of these hormone receptors in the absence of the hormones and even in the presence of anti-hormones and thereby circumvents the anti tumor effect of anti hormonal strategies resulting in resistance of PPARBP overexpressing cells. In addition overexpression of hormone receptors other than estrogen receptor in tumor cells affects activity of estrogen or the respective anti-hormones by competition for dimerization partners, such as RXR, or transcriptional activator or repressor genes, such as CBP or NCOR. With regard to tamoxifen treatment this clearly diminishes the effect of the anti-hormone, as the pool of the transcriptional cofactors is reduced for the classical mode of action of tamoxifen within the nucleus.

For `CC/C(=C(\c1ccccc1)c1ccc(OCCN(C)C)cc1)c1ccccc1` [tamoxifen], the “overall survival of patients receiving adjuvant tamoxifen” value was “has impact on the overall survival”.
